Holding throughout (type): cell-based
For test [1], the system named is Staphylococcus aureus 209P. Nature of the test: antimicrobial activities in in vitro testing (MIC), Staphylococcus aureus 209P. The source says: (§1) The results of the antimicrobial activities of these compounds in in vitro testing in accordance with the recognized method are set forth in the Table below.
Test [2] deals with Staphylococcus aureus FS 289. Description: antimicrobial activities in in vitro testing (MIC), Staphylococcus aureus FS 289. As to conditions: FS289, read-out: Minimum Inhibitory Concentration.
Text: as §1

Test [3] deals with Escherichia coli NIHJ. Nature of the test: antimicrobial activities in in vitro testing (MIC), Escherichia coli NIHJ.
Test [4] has as its system Klebsiella pneumoniae 602. Nature of the test: antimicrobial activities in in vitro testing (MIC), Klebsiella pneumoniae 602.
In test [5] the test system is Proteus vulgaris HX 19. Description: antimicrobial activities in in vitro testing (MIC), Proteus vulgaris HX 19. The note with it: HX19, read-out: Minimum Inhibitory Concentration.
Text: as §1

Test [6] deals with Pseudomonas aeruginosa 104. Nature of the test: antimicrobial activities in in vitro testing (MIC), Pseudomonas aeruginosa 104.
Text: as §1

Setting [7] is: Staphylococcus aureus 209P, in vitro, read-out: Minimum Inhibitory Concentration.
[8] abbreviates: in vitro, read-out: Minimum Inhibitory Concentration.
The mark [9] stands for this setting: Staphylococcus aureus 209 P, read-out: antimicrobial activities.
Where [10] appears, read: read-out: antimicrobial activities.

This is an account of results in patent publication US4368198A, “Cephalosporins” (Sumitomo Chemical Company Limited, priority 1976, dated 1983).

Each structure is given as a SMILES string. In brackets after ≈: the same amount, converted by molar mass. Where two headings read alike, the source gives them in different places.

Turning to `NC(=O)OCC1=C(C(=O)O)N2C(=O)C(NC(=O)[C@H](NC(=O)c3cnccc3O)c3ccc(O)cc3)[C@H]2SC1` (stereo partly drawn) [Example 4, 7-[D-α-(4-Hydroxypyridine-3-carboxamido)-α-p-hydroxyphenylacetamido]-3-carbamoyloxymethyl-3-cephem-4-carboxylic Acid], the MIC stood at 0.39 µg/mL (≈ 0.718 µM) in test [1] (setting [7]); 3.13 µg/mL (≈ 5.76 µM) in test [2]; 12.5 µg/mL (≈ 23 µM) in test [3] (setting [8]); 12.5 µg/mL (≈ 23 µM) in test [4] (setting [8]); 0.2 µg/mL (≈ 0.368 µM) in test [5]; 6.25 µg/mL (≈ 11.5 µM) in test [6] (setting [8]).
In the case of `NC(=O)OCC1=C(C(=O)O)N2C(=O)C(NC(=O)[C@H](NC(=O)c3cnccc3O)c3cccc(N)c3)[C@H]2SC1` (stereo partly drawn) [Example 5, 7-[D-α-(4-Hydroxypyridine-3-carboxamido)-α-(m-aminophenyl)acetamido]-3-carbamoyloxymethyl-3-cephem-4-carboxylic acid], the MIC turned out to be 0.39 µg/mL (≈ 0.719 µM) in test [1] (setting [7]); 3.13 µg/mL (≈ 5.77 µM) in test [2]; 6.25 µg/mL (≈ 11.5 µM) in test [3] (setting [8]); 12.5 µg/mL (≈ 23 µM) in test [4] (setting [8]); 0.2 µg/mL (≈ 0.369 µM) in test [5]; 6.25 µg/mL (≈ 11.5 µM) in test [6] (setting [8]).
With `NC(=O)OCC1=C(C(=O)O)N2C(=O)C(NC(=O)[C@H](NC(=O)c3cnccc3O)c3ccccc3)[C@H]2SC1` (stereo partly drawn) [Example 6, 7-[D-α-(4-Hydroxypyridine-3-carboxamido)-α-phenylacetamido]-3-carbamoyloxymethyl-3-cephem-4-carboxylic acid], the MIC in test [1] (setting [7]) worked out at 0.39 µg/mL (≈ 0.739 µM); in test [2] it was 3.13 µg/mL (≈ 5.93 µM); in test [3] (setting [8]) it was 12.5 µg/mL (≈ 23.7 µM); in test [4] (setting [8]) it was 12.5 µg/mL (≈ 23.7 µM); in test [5], 0.2 µg/mL (≈ 0.379 µM); in test [6] (setting [8]), 12.5 µg/mL (≈ 23.7 µM).
`NC(=O)OCC1=C(C(=O)O)N2C(=O)C(NC(=O)[C@H](NC(=O)c3cnc4cccnc4c3O)c3ccc(O)cc3)[C@H]2SC1` (stereo partly drawn) [Example 7, 7-[D-α-(4-Hydroxy-1,5-naphthyridine-3-carboxamido)-α-(p-hydroxyphenyl)acetamido]-3-carbamoyloxymethyl-3-cephem-4-carboxylic acid]: the MIC stood at 0.78 µg/mL (≈ 1.31 µM) in test [1] (setting [7]); 6.25 µg/mL (≈ 10.5 µM) in test [2]; 3.13 µg/mL (≈ 5.26 µM) in test [3] (setting [8]); 1.56 µg/mL (≈ 2.62 µM) in test [4] (setting [8]); 0.78 µg/mL (≈ 1.31 µM) in test [5]; 6.25 µg/mL (≈ 10.5 µM) in test [6] (setting [8]).
As for `NC(=O)OCC1=C(C(=O)O)N2C(=O)C(NC(=O)[C@H](NC(=O)c3cnc4cccnc4c3O)c3ccccc3)[C@H]2SC1` (stereo partly drawn) [Example 8, 7-[D-α-(4-Hydroxy-1,5-naphthyridine-3-carboxamido)-α-phenylacetamido]-3-carbamoyloxymethyl-3-cephem-4-carboxylic acid], the MIC in test [1] (setting [7]) was 0.78 µg/mL (≈ 1.35 µM); in test [2], 6.25 µg/mL (≈ 10.8 µM); in test [3] (setting [8]), 3.13 µg/mL (≈ 5.41 µM); in test [4] (setting [8]) it was 1.56 µg/mL (≈ 2.7 µM); in test [5], 0.78 µg/mL (≈ 1.35 µM); in test [6] (setting [8]), 6.25 µg/mL (≈ 10.8 µM).
Take `NC(=O)OCC1=C(C(=O)O)N2C(=O)C(NC(=O)[C@H](NC(=O)c3cnc4cccnc4c3O)c3cccc(N)c3)C2SC1` (some centres unmarked) [Example 9]: the MIC is 0.78 µg/mL (≈ 1.31 µM) in test [1] (setting [7]); 3.13 µg/mL (≈ 5.27 µM) in test [2]; 1.56 µg/mL (≈ 2.63 µM) in test [3] (setting [8]); 1.56 µg/mL (≈ 2.63 µM) in test [4] (setting [8]); 0.78 µg/mL (≈ 1.31 µM) in test [5]; 6.25 µg/mL (≈ 10.5 µM) in test [6] (setting [8]).
As to `CSc1ncc2c(O)c(C(=O)N[C@@H](C(=O)NC3C(=O)N4C(C(=O)O)=C(COC(N)=O)CS[C@H]34)c3ccc(O)cc3)cnc2n1` (stereo partly drawn) [Example 10, 7-[D-α-(2-Methylthio-5,8-dihydro-5-oxopyrido[2,3-d]-pyrimidine-6-carboxamido)-α-(p-hydroxyphenyl)acetamido]-3-carbamoyloxymethyl-3-cephem-4-carboxylic acid], the MIC in test [1] (setting [7]) was found to be 0.78 µg/mL (≈ 1.22 µM); in test [2], 3.13 µg/mL (≈ 4.88 µM); in test [3] (setting [8]), 6.25 µg/mL (≈ 9.74 µM); in test [4] (setting [8]) it was 6.25 µg/mL (≈ 9.74 µM); in test [5], 1.56 µg/mL (≈ 2.43 µM); in test [6] (setting [8]), 6.25 µg/mL (≈ 9.74 µM).
As for `NC(=O)OCC1=C(C(=O)O)N2C(=O)C(NC(=O)[C@H](NC(=O)c3cnc4cncnc4c3O)c3ccc(O)cc3)C2SC1` (stereo partly drawn) [Example 11, 7-[D-α-(5,8-Dihydro-5H-8-oxopyrido[3,2-d]pyrimidine-7-carboxamido)-α-(p-hydroxyphenyl)acetamido]-3-carbamoyloxymethyl-3-cephem-4-carboxylic acid], the MIC in test [1] (setting [7]) was determined as 1.56 µg/mL (≈ 2.62 µM); in test [2], 6.25 µg/mL (≈ 10.5 µM); in test [3] (setting [8]), 6.25 µg/mL (≈ 10.5 µM); in test [4] (setting [8]) it was 6.25 µg/mL (≈ 10.5 µM); in test [5] it was 1.56 µg/mL (≈ 2.62 µM); in test [6] (setting [8]) it was 12.5 µg/mL (≈ 21 µM).
In the case of `NC(=O)OCC1=C(C(=O)O)N2C(=O)C(NC(=O)[C@H](NC(=O)c3cnc4cccnc4c3O)c3ccc(O)c(Cl)c3)C2SC1` (some centres unmarked) [Example 12], the MIC in test [1] (setting [7]) stood at 1.56 µg/mL (≈ 2.48 µM); in test [2], 6.25 µg/mL (≈ 9.94 µM); in test [3] (setting [8]) it was 3.13 µg/mL (≈ 4.98 µM); in test [4] (setting [8]), 1.56 µg/mL (≈ 2.48 µM); in test [5], 0.78 µg/mL (≈ 1.24 µM); in test [6] (setting [8]), 6.25 µg/mL (≈ 9.94 µM).
Regarding `O=C(O)Cc1nnc(SCC2=C(C(=O)O)N3C(=O)C(NC(=O)[C@H](NC(=O)c4cnc5cccnc5c4O)c4ccc(O)cc4)[C@H]3SC2)s1` (stereo partly drawn) [Example 13, 7-[D-α-(4-Hydroxy-1,5-naphthyridine-3-carboxamido)-α-p-hydroxyphenylacetamido]-3-(5-carboxymethyl-1,3,4-thiadiazol-2-ylthiomethyl)-3-cephem-4-carboxylic Acid], the MIC in test [1] (setting [9]) was determined as 0.78 µg/mL (≈ 1.1 µM); in test [3] (setting [10]), 1.56 µg/mL (≈ 2.2 µM); in test [4] (setting [10]), 1.56 µg/mL (≈ 2.2 µM); in test [6] (setting [10]) it was 3.13 µg/mL (≈ 4.41 µM).
Regarding `O=C(O)Cn1nnnc1SCC1=C(C(=O)O)N2C(=O)C(NC(=O)[C@H](NC(=O)c3cnc4cccnc4c3O)c3ccc(O)cc3)[C@H]2SC1` (stereo partly drawn) [Example 14, 7-[D-α-(4-Hydroxy-1,5-naphthyridine-3-carboxamido)-α-p-hydroxyphenylacetamido]-3-(1-carboxymethyl-1,2,3,4-tetrazol-5-ylthiomethyl)-3-cephem-4-carboxylic Acid], the MIC in test [1] (setting [9]) worked out at 0.78 µg/mL (≈ 1.12 µM); in test [3] (setting [10]) it was 1.56 µg/mL (≈ 2.25 µM); in test [4] (setting [10]), 1.56 µg/mL (≈ 2.25 µM); in test [6] (setting [10]), 3.13 µg/mL (≈ 4.51 µM).
